According to patent US7998995B2 (Exelixis Patent Company LLC, priority 2006, dated 2011):

test system: T1, LXR; assay: Measured EC50 or IC50 for LXR (LXRα and/or LXRβ; assay and subtype not given); conditions: IC50 or EC50 class, subtype not specified
T1 construct: fused on or other part: GST fused to the LBD in the FRET assay
Experimental: Measured EC50 or IC50 for LXR, and FXR for Compounds of the Invention
LXR and FXR activities for various compounds of the invention are presented in the following table; those compounds with EC50 or IC50 values <10 μM for at least one of LXRα, LXRβ or FXR are considered to be active. In the following Table, IC50 or EC50 data is represented as follows: A<1 μM, B=1-10 μm, and C>10 μM.

Q: For `Cc1cscc1-c1cn(-c2ccc(-c3cccc(S(C)(=O)=O)c3)cc2)c(-c2ccccc2C(F)(F)F)n1` [Example 993, 1-(3′-(methylsulfonyl)biphenyl-4-yl)-4-(4-methylthiophen-3-yl)-2-(2-(trifluoromethyl)phenyl)-1H-imidazole], which EC50 is on record?
A: Its EC50 is 1000 to 10000 nM.

Q: `Cn1cc(-c2cn(-c3ccc(-c4cccc(S(C)(=O)=O)c4)cc3)c(-c3ccccc3C(F)(F)F)n2)cn1` [Example 994, 1-methyl-4-(1-(3′-(methylsulfonyl)biphenyl-4-yl)-2-(2-(trifluoromethyl)phenyl)-1H-imidazol-4-yl)-1H-pyrazole] was tested. Which EC50 did it give?
A: The EC50 was less than 1000 nM.

Q: For `CS(=O)(=O)c1cccc(-c2ccc(-n3cc(-c4ccoc4)nc3-c3ccccc3C(F)(F)F)cc2)c1` [Example 995, 4-(furan-3-yl)-1-(3′-(methylsulfonyl)biphenyl-4-yl)-2-(2-(trifluoromethyl)phenyl)-1H-imidazole], which EC50 is on record?
A: Its EC50 is less than 1000 nM.

Q: `CS(=O)(=O)c1cccc(-c2ccc(-n3cc(-c4ccsc4)nc3-c3ccccc3C(F)(F)F)cc2)c1` [Example 996, 1-(3′-(methylsulfonyl)biphenyl-4-yl)-4-(thiophen-3-yl)-2-(2-(trifluoromethyl)phenyl)-1H-imidazole] was tested. Which EC50 did it give?
A: The EC50 was less than 1000 nM.

Q: Which EC50 does the source give for `CS(=O)(=O)c1cccc(-c2ccc(-n3cc(-c4ccsc4)nc3-c3ccccc3Cl)c(Cl)c2)c1` [Example 997, 1-(3-chloro-3′-(methylsulfonyl)biphenyl-4-yl)-2-(2-chlorophenyl)-4-(thiophen-3-yl)-1H-imidazole] here?
A: The EC50 was less than 1000 nM.

Q: With `CS(=O)(=O)c1cccc(-c2ccc(-n3cc(N4CCC4)nc3-c3ccccc3C(F)(F)F)cc2)c1` [Example 998, 4-(azetidin-1-yl)-1-(3′-(methylsulfonyl)biphenyl-4-yl)-2-(2-(trifluoromethyl)phenyl)-1H-imidazole] as the molecule, how does the EC50 read?
A: Its EC50 is less than 1000 nM.

Q: How did the EC50 turn out when `CS(=O)(=O)c1cccc(-c2ccc(-n3cc(-n4cccn4)nc3-c3c(Cl)cccc3Cl)cc2)c1` [Example 999, 1-{2-(2,6-dichlorophenyl)-1-[3′-(methylsulfonyl)biphenyl-4-yl]-1H-imidazol-4-yl}-1H-pyrazole] was run?
A: The EC50 was less than 1000 nM.

Q: `Cc1nccn1-c1cn(-c2ccc(-c3cccc(S(C)(=O)=O)c3)cc2)c(-c2c(Cl)cccc2Cl)n1` [Example 1001, 2′-(2,6-dichlorophenyl)-2-methyl-1′-[3′-(methylsulfonyl)biphenyl-4-yl]-1′H-1,4′-biimidazole] was tested. Which EC50 did it give?
A: The EC50 was less than 1000 nM.

Q: `CS(=O)(=O)c1cccc(-c2ccc(-n3cc(N4CCCC4)nc3-c3c(Cl)cccc3Cl)cc2)c1` [Example 1002, 2-(2,6-dichlorophenyl)-1-[3′-(methylsulfonyl)biphenyl-4-yl]-4-(pyrrolidin-1-yl)-1H-imidazole] was tested. Which EC50 did it give?
A: The EC50 was less than 1000 nM.

Q: `CS(=O)(=O)c1cccc(-c2ccc(-n3cc(N4CCC(O)C4)nc3-c3ccccc3C(F)(F)F)cc2)c1` (stereo not drawn) [Example 1003, 1-(1-(3′-(methylsulfonyl)biphenyl-4-yl)-2-(2-(trifluoromethyl)phenyl)-1H-imidazol-4-yl)pyrrolidin-3-ol] was tested. Which EC50 did it give?
A: Its EC50 is less than 1000 nM.

Q: For `CS(=O)(=O)c1cccc(-c2ccc(-n3cc(N4CCCCC4)nc3-c3ccccc3C(F)(F)F)cc2)c1` [Example 1004, 1-(1-(3′-(methylsulfonyl)biphenyl-4-yl)-2-(2-(trifluoromethyl)phenyl)-1H-imidazol-4-yl)piperidine], which EC50 is on record?
A: The EC50 was less than 1000 nM.

Q: How did the EC50 turn out when `CS(=O)(=O)c1cccc(-c2ccc(-n3cc(N4CCCC4=O)nc3-c3c(Cl)cccc3Cl)cc2)c1` [Example 1005, 1-{2-(2,6-dichlorophenyl)-1-[3′-(methylsulfonyl)biphenyl-4-yl]-1H-imidazol-4-yl}pyrrolidin-2-one] was run?
A: Its EC50 is less than 1000 nM.

Q: `CS(=O)(=O)c1cccc(-c2ccc(-n3cc(-n4cnc(C#N)c4)nc3-c3ccccc3C(F)(F)F)cc2)c1` [Example 1008, 1′-(3′-(methylsulfonyl)biphenyl-4-yl)-2′-(2-(trifluoromethyl)phenyl)-1′H-1,4′-biimidazole-4-carbonitrile] was tested. Which EC50 did it give?
A: The EC50 was less than 1000 nM.

Q: Which EC50 does the source give for `CS(=O)(=O)c1cccc(-c2ccc(-n3cc(-n4cnc(CO)c4)nc3-c3ccccc3C(F)(F)F)cc2)c1` [Example 1009, (1′-(3′-(methylsulfonyl)biphenyl-4-yl)-2′-(2-(trifluoromethyl)phenyl)-1′H-1,4′-biimidazol-4-yl)methanol] here?
A: The EC50 was less than 1000 nM.

Q: For `CS(=O)(=O)c1cccc(-c2ccc(-n3cc(-n4cccc4C#N)nc3-c3ccccc3C(F)(F)F)cc2)c1` [Example 1010], which EC50 is on record?
A: The EC50 was less than 1000 nM.

Q: Which EC50 does the source give for `CS(=O)(=O)c1cccc(-c2ccc(-n3cc(-c4ncco4)nc3-c3ccccc3C(F)(F)F)cc2)c1` [Example 1011, 2-(1-(3′-(methylsulfonyl)biphenyl-4-yl)-2-(2-(trifluoromethyl)phenyl)-1H-imidazol-4-yl)oxazole] here?
A: The EC50 was greater than 10000 nM.

Q: For `CS(=O)(=O)c1cccc(-c2ccc(-n3cc(-c4ncco4)nc3-c3ccccc3Cl)c(Cl)c2)c1` [Example 1012, 2-(1-(3-chloro-3′-(methylsulfonyl)biphenyl-4-yl)-2-(2-chlorophenyl)-1H-imidazol-4-yl)oxazole], which EC50 is on record?
A: Its EC50 is 1000 to 10000 nM.

Q: With `Cc1csc(-c2cn(-c3ccc(-c4cccc(S(C)(=O)=O)c4)cc3)c(-c3c(Cl)cccc3Cl)n2)n1` [Example 1013, 2-(2-(2,6-dichlorophenyl)-1-(3′-(methylsulfonyl)biphenyl-4-yl)-1H-imidazol-4-yl)-4-methylthiazole] as the molecule, how does the EC50 read?
A: Its EC50 is less than 1000 nM.

Q: For `CS(=O)(=O)c1cccc(-c2ccc(-n3cc(-c4nccs4)nc3-c3c(Cl)cccc3Cl)cc2)c1` [Example 1014, 2-(2-(2,6-dichlorophenyl)-1-(3′-(methylsulfonyl)biphenyl-4-yl)-1H-imidazol-4-yl)thiazole], which EC50 is on record?
A: Its EC50 is less than 1000 nM.

Q: Which EC50 does the source give for `CS(=O)(=O)c1cccc(-c2ccc(-n3cc([C@H]4CCCN4)nc3-c3ccccc3C(F)(F)F)cc2)c1` [Example 1016, 1-(3′-(methylsulfonyl)biphenyl-4-yl)-4-((R)-pyrrolidin-2-yl)-2-(2-(trifluoromethyl)phenyl)-1H-imidazole] here?
A: The EC50 was less than 1000 nM.

Q: For `CC(C)(C)OC(=O)N1CCC[C@@H]1c1cn(-c2ccc(-c3cccc(S(C)(=O)=O)c3)cc2)c(-c2ccccc2C(F)(F)F)n1` [Example 1017, (R)-tert-butyl 2-(1-(3′-(methylsulfonyl)biphenyl-4-yl)-2-(2-(trifluoromethyl)phenyl)-1H-imidazol-4-yl)pyrrolidine-1-carboxylate], which EC50 is on record?
A: The EC50 was less than 1000 nM.

Q: With `CC(=O)N1CCC[C@@H]1c1cn(-c2ccc(-c3cccc(S(C)(=O)=O)c3)cc2)c(-c2ccccc2C(F)(F)F)n1` [Example 1019, 1-((2R)-2-(1-(3′-(methylsulfonyl)biphenyl-4-yl)-2-(2-(trifluoromethyl)phenyl)-1H-imidazol-4-yl)pyrrolidin-1-yl)ethanone] as the molecule, how does the EC50 read?
A: Its EC50 is greater than 10000 nM.

Q: How did the EC50 turn out when `CS(=O)(=O)c1cccc(-c2ccc(-n3cc(-c4n[nH]c(=O)o4)nc3-c3ccccc3C(F)(F)F)cc2)c1` [Example 1023, 5-(1-(3′-(methylsulfonyl)biphenyl-4-yl)-2-(2-(trifluoromethyl)phenyl)-1H-imidazol-4-yl)-1,3,4-oxadiazol-2(3H)-one] was run?
A: The EC50 was less than 1000 nM.

Q: For `Cc1nnc(-c2cn(-c3ccc(-c4cccc(S(C)(=O)=O)c4)cc3)c(-c3ccccc3C(F)(F)F)n2)o1` [Example 1024, 2-methyl-5-(1-(3′-(methylsulfonyl)biphenyl-4-yl)-2-(2-(trifluoromethyl)phenyl)-1H-imidazol-4-yl)-1,3,4-oxadiazole], which EC50 is on record?
A: The EC50 was less than 1000 nM.

Q: Which EC50 does the source give for `CS(=O)(=O)c1cccc(-c2ccc(-n3cc(-c4nnc(C(F)(F)F)o4)nc3-c3ccccc3Cl)c(Cl)c2)c1` [Example 1025, 2-(1-(3-chloro-3′-(methylsulfonyl)biphenyl-4-yl)-2-(2-chlorophenyl)-1H-imidazol-4-yl)-5-(trifluoromethyl)-1,3,4-oxadiazole] here?
A: Its EC50 is less than 1000 nM.

Q: Which EC50 does the source give for `Cc1coc(-c2cn(-c3ccc(-c4cccc(S(C)(=O)=O)c4)cc3)c(-c3ccccc3C(F)(F)F)n2)n1` [Example 1026, methyl-2-(1-(3′-(methylsulfonyl)biphenyl-4-yl)-2-(2-(trifluoromethyl)phenyl)-1H-imidazol-4-yl)oxazole] here?
A: Its EC50 is less than 1000 nM.

Q: With `CS(=O)(=O)c1cccc(-c2ccc(-n3cc(-c4cnco4)nc3-c3ccccc3Cl)c(Cl)c2)c1` [Example 1028, 5-(1-(3-chloro-3′-(methylsulfonyl)biphenyl-4-yl)-2-(2-chlorophenyl)-1H-imidazol-4-yl)oxazole] as the molecule, how does the EC50 read?
A: Its EC50 is less than 1000 nM.

Q: With `CS(=O)(=O)c1cccc(-c2ccc(-n3cc(C4(C#N)CCOCC4)nc3-c3ccccc3C(F)(F)F)cc2)c1` [Example 1031, 4-(1-(3′-methylsulfonyl)biphenyl-4-yl)-2-(2-(trifluoromethyl)phenyl-1H-imidazol-4-yl)tetrahydro-2H-pyran-4-carbonitrile] as the molecule, how does the EC50 read?
A: The EC50 was less than 1000 nM.

Q: For `Cc1nc(-c2cn(-c3ccc(-c4cccc(S(C)(=O)=O)c4)cc3)c(-c3ccccc3C(F)(F)F)n2)no1` [Example 1032], which EC50 is on record?
A: The EC50 was less than 1000 nM.

Q: For `Cn1oc(=O)nc1-c1cn(-c2ccc(-c3cccc(S(C)(=O)=O)c3)cc2)c(-c2ccccc2C(F)(F)F)n1` [Example 1034], which EC50 is on record?
A: The EC50 was less than 1000 nM.

Q: Which EC50 does the source give for `CS(=O)(=O)c1cccc(-c2ccc(-n3cc(-c4nc(=O)o[nH]4)nc3-c3ccccc3C(F)(F)F)cc2)c1` [Example 1035] here?
A: Its EC50 is less than 1000 nM.

Q: How did the EC50 turn out when `Cn1oc(=S)nc1-c1cn(-c2ccc(-c3cccc(S(C)(=O)=O)c3)cc2)c(-c2ccccc2C(F)(F)F)n1` [Example 1036] was run?
A: The EC50 was less than 1000 nM.

Q: How did the EC50 turn out when `Cc1nsc(-c2cn(-c3ccc(-c4cccc(S(C)(=O)=O)c4)cc3)c(-c3ccccc3C(F)(F)F)n2)n1` [Example 1037] was run?
A: Its EC50 is greater than 10000 nM.
